In patent US20160289186A1, “FLUOROMETHYL-SUBSTITUTED PYRROLE CA[…]” (Grunenthal GmbH, priority 2013, published 2016):

target: T1, Human CaV2.2 channels (Homo sapiens, UniProt Q00975); assay: Fluorescent (FLIPR) assay for CaV2.2 channels using potassium depolarization to induce channel opening; format: cell-based; settings: 3 μM compound; 30 mM KCl assay buffer (inactivated channel state); HEK293 cells stably expressing human CaV2.2; read-out: Activity Category: %-Inhib (CaV2.2) @3 μM @30 mM KCl
T1 construct: expressed in transfected cells; host or cells: HEK293
T1 sequence (Q00975 whole entry): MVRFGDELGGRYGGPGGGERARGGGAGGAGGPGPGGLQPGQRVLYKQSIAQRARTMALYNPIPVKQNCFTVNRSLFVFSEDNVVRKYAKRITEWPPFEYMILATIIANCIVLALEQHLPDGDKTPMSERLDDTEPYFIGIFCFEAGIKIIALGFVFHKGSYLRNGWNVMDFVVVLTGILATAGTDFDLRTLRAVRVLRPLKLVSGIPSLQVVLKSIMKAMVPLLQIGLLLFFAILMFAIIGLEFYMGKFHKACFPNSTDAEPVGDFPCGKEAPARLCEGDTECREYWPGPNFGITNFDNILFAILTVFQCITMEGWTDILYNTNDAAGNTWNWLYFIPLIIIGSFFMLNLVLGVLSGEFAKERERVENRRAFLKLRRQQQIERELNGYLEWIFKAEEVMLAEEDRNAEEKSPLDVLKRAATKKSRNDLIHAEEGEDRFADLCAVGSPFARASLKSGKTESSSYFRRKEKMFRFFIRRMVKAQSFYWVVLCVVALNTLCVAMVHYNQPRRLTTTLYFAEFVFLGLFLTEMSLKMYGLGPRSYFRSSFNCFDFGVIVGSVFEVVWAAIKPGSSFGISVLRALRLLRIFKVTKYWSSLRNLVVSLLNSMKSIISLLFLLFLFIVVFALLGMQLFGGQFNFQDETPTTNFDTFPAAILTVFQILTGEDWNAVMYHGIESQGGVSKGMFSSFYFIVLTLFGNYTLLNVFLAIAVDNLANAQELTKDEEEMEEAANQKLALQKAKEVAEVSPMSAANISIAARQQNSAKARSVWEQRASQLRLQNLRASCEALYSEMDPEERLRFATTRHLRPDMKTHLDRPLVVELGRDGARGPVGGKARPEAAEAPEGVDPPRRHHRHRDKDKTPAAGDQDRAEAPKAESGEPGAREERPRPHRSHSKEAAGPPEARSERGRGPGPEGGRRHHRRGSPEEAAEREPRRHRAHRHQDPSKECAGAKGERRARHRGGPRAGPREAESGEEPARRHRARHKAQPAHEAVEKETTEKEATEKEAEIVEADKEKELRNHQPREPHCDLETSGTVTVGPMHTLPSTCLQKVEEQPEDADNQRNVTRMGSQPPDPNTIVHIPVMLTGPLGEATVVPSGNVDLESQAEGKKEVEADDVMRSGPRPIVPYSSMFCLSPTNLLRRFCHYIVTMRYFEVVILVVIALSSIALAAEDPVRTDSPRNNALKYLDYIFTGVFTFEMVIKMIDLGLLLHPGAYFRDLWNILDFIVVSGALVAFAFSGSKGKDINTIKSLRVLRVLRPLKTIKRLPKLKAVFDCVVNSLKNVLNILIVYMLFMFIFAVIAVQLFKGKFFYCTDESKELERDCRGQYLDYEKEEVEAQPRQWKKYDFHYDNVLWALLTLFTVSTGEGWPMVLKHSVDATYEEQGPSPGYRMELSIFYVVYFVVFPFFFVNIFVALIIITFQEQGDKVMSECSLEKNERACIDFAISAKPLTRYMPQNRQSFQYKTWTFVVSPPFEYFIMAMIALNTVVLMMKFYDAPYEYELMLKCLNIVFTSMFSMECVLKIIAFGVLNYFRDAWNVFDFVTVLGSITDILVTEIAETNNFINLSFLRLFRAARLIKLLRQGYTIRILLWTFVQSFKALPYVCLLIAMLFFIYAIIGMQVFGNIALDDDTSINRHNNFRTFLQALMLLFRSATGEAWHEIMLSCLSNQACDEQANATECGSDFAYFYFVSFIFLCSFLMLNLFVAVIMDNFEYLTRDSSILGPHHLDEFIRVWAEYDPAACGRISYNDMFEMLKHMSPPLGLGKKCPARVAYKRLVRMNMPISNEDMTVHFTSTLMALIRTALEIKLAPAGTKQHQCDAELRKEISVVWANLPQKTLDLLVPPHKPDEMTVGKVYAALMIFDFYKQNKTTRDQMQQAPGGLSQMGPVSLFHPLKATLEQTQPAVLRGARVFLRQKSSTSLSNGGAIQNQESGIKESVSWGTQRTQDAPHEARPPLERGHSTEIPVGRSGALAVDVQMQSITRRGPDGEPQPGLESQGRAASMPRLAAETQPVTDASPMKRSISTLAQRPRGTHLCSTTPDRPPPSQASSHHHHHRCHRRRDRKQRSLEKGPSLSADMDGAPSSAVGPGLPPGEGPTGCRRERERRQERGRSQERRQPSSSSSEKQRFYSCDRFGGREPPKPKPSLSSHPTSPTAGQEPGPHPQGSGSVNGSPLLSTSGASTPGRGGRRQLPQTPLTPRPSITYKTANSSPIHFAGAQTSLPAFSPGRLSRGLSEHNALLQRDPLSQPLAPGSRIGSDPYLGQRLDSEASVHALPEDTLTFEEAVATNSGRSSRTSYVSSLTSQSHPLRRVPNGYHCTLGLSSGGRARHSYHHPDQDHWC
T1 sequence (P54284 whole entry, further chain): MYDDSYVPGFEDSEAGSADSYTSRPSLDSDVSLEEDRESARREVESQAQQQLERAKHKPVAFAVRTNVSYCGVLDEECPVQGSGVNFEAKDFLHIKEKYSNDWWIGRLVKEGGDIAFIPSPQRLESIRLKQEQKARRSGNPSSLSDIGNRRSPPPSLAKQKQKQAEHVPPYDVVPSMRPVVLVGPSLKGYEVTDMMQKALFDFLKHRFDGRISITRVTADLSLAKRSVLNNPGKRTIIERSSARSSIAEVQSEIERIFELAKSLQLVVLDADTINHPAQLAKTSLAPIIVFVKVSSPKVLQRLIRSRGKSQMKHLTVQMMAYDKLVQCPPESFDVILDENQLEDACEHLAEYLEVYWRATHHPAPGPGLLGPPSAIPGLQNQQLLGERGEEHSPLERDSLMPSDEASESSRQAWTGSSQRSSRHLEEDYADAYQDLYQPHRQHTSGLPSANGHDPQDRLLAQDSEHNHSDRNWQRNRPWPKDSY
T1 sequence (P54289 25-1103, further chain): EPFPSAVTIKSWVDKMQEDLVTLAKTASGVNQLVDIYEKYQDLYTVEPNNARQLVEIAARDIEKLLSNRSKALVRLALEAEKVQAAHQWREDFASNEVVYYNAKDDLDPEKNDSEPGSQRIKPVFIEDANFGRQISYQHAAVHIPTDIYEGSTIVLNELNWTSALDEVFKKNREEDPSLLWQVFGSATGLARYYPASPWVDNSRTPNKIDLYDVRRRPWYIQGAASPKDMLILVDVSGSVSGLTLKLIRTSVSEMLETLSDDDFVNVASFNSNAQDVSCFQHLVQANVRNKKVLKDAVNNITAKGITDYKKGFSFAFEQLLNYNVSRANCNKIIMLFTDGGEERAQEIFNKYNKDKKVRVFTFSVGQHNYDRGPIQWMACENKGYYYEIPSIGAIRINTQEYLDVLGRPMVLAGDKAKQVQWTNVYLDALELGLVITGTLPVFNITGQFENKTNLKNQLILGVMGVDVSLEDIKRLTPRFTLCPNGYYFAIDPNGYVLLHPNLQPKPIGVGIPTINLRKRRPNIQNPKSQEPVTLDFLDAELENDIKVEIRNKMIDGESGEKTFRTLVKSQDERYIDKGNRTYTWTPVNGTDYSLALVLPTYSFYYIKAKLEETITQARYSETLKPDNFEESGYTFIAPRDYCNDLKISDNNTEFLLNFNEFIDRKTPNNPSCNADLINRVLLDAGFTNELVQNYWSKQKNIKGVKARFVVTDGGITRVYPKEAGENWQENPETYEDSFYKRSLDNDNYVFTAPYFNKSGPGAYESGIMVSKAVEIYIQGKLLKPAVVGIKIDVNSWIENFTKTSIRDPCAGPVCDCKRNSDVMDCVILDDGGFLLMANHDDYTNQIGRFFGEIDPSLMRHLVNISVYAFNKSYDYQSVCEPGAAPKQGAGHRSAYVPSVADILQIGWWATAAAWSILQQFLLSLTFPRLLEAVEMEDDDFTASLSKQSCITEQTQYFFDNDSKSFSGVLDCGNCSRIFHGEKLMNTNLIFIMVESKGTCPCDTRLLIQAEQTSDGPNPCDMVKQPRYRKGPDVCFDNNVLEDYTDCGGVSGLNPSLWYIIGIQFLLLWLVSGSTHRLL
Text: In the process, the Ca^2+ influx is quantified in the FLIPR assay with the aid of a Ca^2+-sensitive dye (type Fluo-4, Molecular Probes Europe BV, Leiden, the Netherlands) in a fluorescent imaging plate reader (FLIPR 3, Molecular Devices, Sunnyvale, USA), as described hereinafter.
Human CaV2.2 channels were stably expressed in HEK293 cells together with alpha2-delta and beta subunits of voltage gated calcium channels. In addition, an inwardly rectifying potassium channel (Kir2.3) was stably expressed in these cells to augment control of the cell membrane potential by the concentration of extracellular potassium ions. Raise of the extracellular potassium concentration leads to depolarization of the membrane potential and thus regulates the voltage dependent state of CaV2.2 channels. For preparation, cells were seeded in black poly-D-lysine coated 96-well plates (Becton Dickinson, Biocoat 4640) in 100 μL medium [500 mL DMEM/F-12 plus Glutamax (Invitrogen 31331-093) plus 5.5 mL MEM NEAA 100× (Invitrogen 11140-035) plus 50 mL FBS decomplemented (Invitrogen 10270-106) plus 200 μg/mL Geneticin (Invitrogen 10131-027) plus 50 μg/mL Hygromycin B (Invitrogen 10687-010) plus 2 μg/mL Blasticidin (anti-bl5b Invivo-Gen) plus 0.2 μg/mL Puromycin (A 11138-03)] at a cell density of 30.000 cells per well. Plates were incubated at 37° C. (5% CO2) for 20 to 23 h. On the day of experiment medium was discarded and cells were loaded with Fluo 4 by addition of 100 μL of basic assay buffer (10 mM HEPES, 1 mM KCl, 149 mM NaCl, 0.8 mM CaCl2, 1.7 mM MgCl2, 10 mM Glucose, 0.1% BSA. pH 7.4) containing 2 μM Fluo 4 (Molecular Probes; F-14201), 0.01% pluronic acid (Molecular Probes; P-6866) and 2.5 mM probenecid (Molecular Probes; P36400). Cells were incubated in the dark at 25° C. for 60 min. Then dye containing buffer was discarded and 100 μL basic (1 mM KCl) or alternative (30 mM KCl) assay buffer was added. The alternative assay buffer contained altered concentrations of KCl (30 mM) and NaCl (120 mM) and was used in order to promote the inactivated channel state. After that 25 μL of basic or alternative assay buffer with or without test compound were added and cells were incubated again in the dark at 25° C. for 15 min. Fluorescence intensity was measured on a FLIPR 3 instrument (Molecular Devices Corp., Sunnyvale, Calif.) with excitation at 480 nm and emission at 535 nm. After continuously reading fluorescence for 30 sec, 50 μL of basic assay buffer containing 210 mM KCl (NaCl omitted) were added for depolarization. Peak fluorescent signal intensity was determined and the amplitude of the peak signal, normalized to base line, was used to measure channel inhibition by test compounds.

| SMILES | inhibition at 3 µM [%] |
| --- | --- |
| Cc1noc(C2CCN(C(=O)c3c(-c4ccc(Cl)cc4)cc(C(F)(F)F)n3C3CC3)CC2)n1 [Example 029, [3-(4-Chlorophenyl)-1-cyclopropyl-5-(trifluoromethyl)-1H-pyrrol-2-yl]-[4-(3-methyl-[1,2,4]oxadiazol-5-yl)-piperidin-1-yl]-methanone] | 75 to 95 |
| Cc1c(-c2ccc(Cl)cc2F)c(C(=O)N(C)Cc2ccncn2)n(C2CC2)c1C(F)(F)F [Example 021, 3-(4-Chloro-2-fluoro-phenyl)-1-cyclopropyl-N,4-dimethyl-N-(pyrimidin-4-yl-methyl)-5-(trifluoromethyl)-1H-pyrrole-2-carboxylic acid amide] | > 95 |
| Cc1noc(C2CCN(C(=O)c3c(-c4ccc(Cl)cc4)c(C)c(C(F)(F)F)n3CC(C)C)CC2)n1 [Example 062, [3-(4-Chlorophenyl)-4-methyl-1-(2-methyl-propyl)-5-(trifluoromethyl)-1H-pyrrol-2-yl]-[4-(3-methyl-[1,2,4]oxadiazol-5-yl)-piperidin-1-yl]-methanone] | 75 to 95 |
| Cc1c(-c2ccc(Cl)cc2)c(C(=O)N(C)CC(C)(C)C)n(C)c1C(F)(F)F [Example 002, 3-(4-Chlorophenyl)-N-(2,2-dimethyl-propyl)-N,1,4-trimethyl-5-(trifluoromethyl)-1H-pyrrole-2-carboxylic acid amide] | 75 to 95 |
| CN(CC(C)(C)O)C(=O)c1c(-c2ccc(Cl)cc2)cc(C(F)(F)F)n1C1CC1 [Example 019, 3-(4-Chlorophenyl)-1-cyclopropyl-N-(2-hydroxy-2-methyl-propyl)-N-methyl-5-(trifluoromethyl)-1H-pyrrole-2-carboxylic acid amide] | 40 to 75 |
| CC(C)Cn1c(C(F)(F)F)cc(-c2ccc(F)cc2)c1C(=O)N(C)CC(C)(C)CN1CCOCC1 [Example 054, N-(2,2-Dimethyl-3-morpholin-4-yl-propyl)-3-(4-fluorophenyl)-N-methyl-1-(2-methyl-propyl)-5-(trifluoromethyl)-1H-pyrrole-2-carboxylic acid amide] | 75 to 95 |
| Cc1c(-c2ccc(Cl)cc2)c(C(=O)N2CCOC(C)(C)C2)n(CC2CCC2)c1C(F)(F)F [Example 085, [3-(4-Chlorophenyl)-1-(cyclobutyl-methyl)-4-methyl-5-(trifluoromethyl)-1H-pyrrol-2-yl]-(2,2-dimethyl-morpholin-4-yl)-methanone] | 75 to 95 |
| CC(C)Cn1c(C(F)(F)F)cc(-c2ccc(F)cc2)c1C(=O)N(C)CC1CCOC1 (stereo not drawn) [Example 058, 3-(4-Fluorophenyl)-N-methyl-1-(2-methyl-propyl)-N-(tetrahydro-furan-3-yl-methyl)-5-(trifluoromethyl)-1H-pyrrole-2-carboxylic acid amide] | > 95 |
| Cc1cc(CN(C)C(=O)c2c(-c3ccc(F)cc3)cc(C(F)(F)F)n2CC2CCCO2)no1 (stereo not drawn) [Example 075, 3-(4-Fluorophenyl)-N-methyl-N-[(5-methyl-isoxazol-3-yl)-methyl]-1-(tetrahydro-furan-2-yl-methyl)-5-(trifluoromethyl)-1H-pyrrole-2-carboxylic acid amide] | 75 to 95 |
| O=C(c1c(-c2ccc(Cl)cc2)cc(C(F)(F)F)n1C1CC1)N1CC(O)C1 [Example 026, [3-(4-Chlorophenyl)-1-cyclopropyl-5-(trifluoromethyl)-1H-pyrrol-2-yl]-(3-hydroxy-azetidin-1-yl)-methanone] | 40 to 75 |
| Cc1c(-c2ccc(Cl)cc2)c(C(=O)N2CCS(=O)(=O)C(C)(C)C2)n(C2CC2)c1C(F)(F)F [Example 044, [3-(4-Chlorophenyl)-1-cyclopropyl-4-methyl-5-(trifluoromethyl)-1H-pyrrol-2-yl]-(2,2-dimethyl-1,1-dioxo-[1,4]thiazinan-4-yl)-methanone] | 75 to 95 |
| Cc1c(-c2ccc(Cl)cc2)c(C(=O)N2CCOCC2)n(CC2(N)CC2)c1C(F)(F)F [Example 095, [1-[(1-Amino-cyclopropyl)-methyl]-3-(4-chlorophenyl)-4-methyl-5-(trifluoromethyl)-1H-pyrrol-2-yl]-morpholin-4-yl-methanone] | 75 to 95 |
| Cc1c(-c2ccc(Cl)cc2)c(C(=O)N(C)CC(C)(C)C(N)=O)n(CC(C)C)c1C(F)(F)F [Example 052, N-(2-Carbamoyl-2-methyl-propyl)-3-(4-chlorophenyl)-N,4-dimethyl-1-(2-methyl-propyl)-5-(trifluoromethyl)-1H-pyrrole-2-carboxylic acid amide] | 75 to 95 |
| Cc1c(-c2ncc(Cl)cn2)c(C(=O)N(C)CCS(C)(=O)=O)n(C(C)C)c1C(F)(F)F [Example 127, 3-(5-Chloro-pyrimidin-2-yl)-1-isopropyl-N,4-dimethyl-N-(2-methylsulfonyl-ethyl)-5-(trifluoromethyl)-1H-pyrrole-2-carboxylic acid amide] | 30 to 40 |
| CCn1c(C(=O)N(C)CC(C)(C)C)c(-c2ccc(Cl)cc2)c(C)c1C(F)(F)F [Example 005, 3-(4-Chlorophenyl)-N-(2,2-dimethyl-propyl)-1-ethyl-N,4-dimethyl-5-(trifluoromethyl)-1H-pyrrole-2-carboxylic acid amide] | 40 to 75 |
| Cc1c(-c2ccc(Cl)cc2)c(C(=O)N(C)CCS(C)(=O)=O)n(C(C)C)c1C(F)(F)F [Example 110, 3-(4-Chlorophenyl)-1-isopropyl-N,4-dimethyl-N-(2-methylsulfonyl-ethyl)-5-(trifluoromethyl)-1H-pyrrole-2-carboxylic acid amide] | 75 to 95 |
| Cc1c(-c2ccc(Cl)cc2)c(C(=O)N(C)CC(C)(C)C#N)n(C(C)C)c1C(F)(F)F [Example 106, 3-(4-Chlorophenyl)-N-(2-cyano-2-methyl-propyl)-1-isopropyl-N,4-dimethyl-5-(trifluoromethyl)-1H-pyrrole-2-carboxylic acid amide] | 75 to 95 |
| CN(CC(C)(C)C)C(=O)c1c(-c2ccc(F)cc2)cc(C(F)(F)F)n1CC1CCCO1 (stereo not drawn) [Example 073, N-(2,2-Dimethyl-propyl)-3-(4-fluorophenyl)-N-methyl-1-(tetrahydro-furan-2-yl-methyl)-5-(trifluoromethyl)-1H-pyrrole-2-carboxylic acid amide] | 75 to 95 |
| Cc1c(-c2ccc(Cl)cc2)c(C(=O)N(C)C(C)C(=O)NC(C)(C)C)n(C(C)C)c1C(F)(F)F (stereo not drawn) [Example 133, N-[1-(tert-Butyl-carbamoyl)-ethyl]-3-(4-chlorophenyl)-1-isopropyl-N,4-dimethyl-5-(trifluoromethyl)-1H-pyrrole-2-carboxylic acid amide] | 40 to 75 |
| Cc1c(-c2ccc(Cl)cc2)c(C(=O)N2CC(O)C2)n(C2CC2)c1C(F)(F)F [Example 025, [3-(4-Chlorophenyl)-1-cyclopropyl-4-methyl-5-(trifluoromethyl)-1H-pyrrol-2-yl]-(3-hydroxy-azetidin-1-yl)-methanone] | 75 to 95 |
| O=C(NC1CC1)c1c(-c2ccc(F)cc2)cc(C(F)(F)F)n1CC1CCCO1 (stereo not drawn) [Example 082, N-Cyclopropyl-3-(4-fluorophenyl)-1-(tetrahydro-furan-2-yl-methyl)-5-(trifluoromethyl)-1H-pyrrole-2-carboxylic acid amide] | 40 to 75 |
| Cc1c(-c2ccc(Cl)cc2)c(C(=O)N(C)C2CCOCC2)n(C2CC2)c1C(F)(F)F [Example 014, 3-(4-Chlorophenyl)-1-cyclopropyl-N,4-dimethyl-N-tetrahydro-pyran-4-yl-5-(trifluoromethyl)-1H-pyrrole-2-carboxylic acid amide] | 75 to 95 |
| CC(C)Cn1c(C(F)(F)F)cc(-c2ccc(F)cc2)c1C(=O)N1CCNC(=O)C1 [Example 063, 4-[3-(4-Fluorophenyl)-1-(2-methyl-propyl)-5-(trifluoromethyl)-1H-pyrrole-2-carbonyl]-piperazin-2-one] | 40 to 75 |
| Cc1c(-c2ccc(Cl)cn2)c(C(=O)N2CC[S+]([O-])C(C)(C)C2)n(C(C)C)c1C(F)(F)F (stereo not drawn) [Example 130, [3-(5-Chloro-pyridin-2-yl)-1-isopropyl-4-methyl-5-(trifluoromethyl)-1H-pyrrol-2-yl]-(2,2-dimethyl-1-oxo-[1,4]thiazinan-4-yl)-methanone] | 40 to 75 |
